The results in this text go back to paper PMC7345095, “New Synthetic Nitro-Pyrrolomycins as Promising Antibacterial and Anticancer Agents” (Antibiotics, 2020).

In brackets after ≈: the same amount, converted by molar mass.

A word on the MBC: it is the smallest concentration meeting the test's criterion for killing. A word on the IC50: it is the concentration at which inhibition is half-maximal.

The test system of one assay is Pseudomonas aeruginosa ATCC 10145. Put plainly: Kill curve assay (MBC), planktonic cells. The format is cell-based. The conditions noted are these: Pseudomonas aeruginosa, ATCC10145; minimal bactericidal concentration, planktonic cells, 24 h challenge, LB medium; read-out: MBC P. aeruginosa. The method, then: (§1) Kill curve assays were performed to test the antimicrobial efficacy of pyrrolomycins (i.e., 1, 2, 5a, 5b, 5c, 5d), as well as that of the natural PM-C against the indicator pathogen Staphylococcus aureus ATCC 25923 and Pseudomonas aeruginosa ATCC 10145 strains. Briefly, a single colony of either S. aureus or P. aeruginosa strains was picked up and pre-cultivated (ca. 16 h) at 37 °C with shacking (160 rpm) in Luria Bertani medium (hereinafter named as LB and composed of (g L^−1): sodium chloride, 10; yeast extract, 5; tryptone, 10). The same medium was solidified by adding 15 g L^−1 of bacteriological agar when needed. Bacterial cells were then inoculated (1% v/v) in LB medium amended with increasing concentrations—ranging from 0 to 100 μM as initial concentration—of each pyrrolomycin tested, challenging the cultures for 24 h and incubating them as reported above. The actual number of viable colony forming units per milliliter of culture (CFU mL^−1) of each bacterial strain, who survived the challenge exerted by pyrrolomycins, was evaluated through the spot plate count method and compared to unchallenged cultures, as reported elsewhere. The data are reported as average values (n = 3) of CFU mL^−1 in the logarithmic (Log10) scale with standard deviation (SD). Evaluation of the MIC of PM-5c, and -5d against S. aureus and of PM-5d against P. aeruginosa was performed by incubating 1% (v/v) of an overnight bacterial suspension in LB medium in presence of increasing concentrations of the PMs. As a control, MIC of PM-C was measured. At the time of the inoculum and after overnight challenge, the absorbance of the cultures at 600 nm, which is an indirect way to measure the bacterial cell growth, was registered using a Spark™ 10 M multimode microplate reader measuring. The experiment was carried out in triplicate, being the absorbance corrected by subtracting that of the culture medium amended with the corresponding PM tested.
On to `O=C(c1cc([N+](=O)[O-])c[nH]1)c1cc(Cl)cc(Cl)c1O` [PM 5a, (3,5-Dichloro-2-hydroxyphenyl)(4-nitro-1H-pyrrol-2-yl)methanone], for which the MBC was > 100 µM.

Still in this assay, the particulars now being: ratio of IC50 of normal hTERT-RPE-1 to MBC of P. aeruginosa; first value of the cell.
`O=C(c1cc([N+](=O)[O-])c[nH]1)c1cc(Cl)cc(Cl)c1O` [PM 5a, (3,5-Dichloro-2-hydroxyphenyl)(4-nitro-1H-pyrrol-2-yl)methanone]: the “B-SI (Bacterial Selectivity Index), P. aeruginosa” value was > 0.7.

The next assay has as its system Staphylococcus aureus ATCC 25923. Nature of the assay: Kill curve assay (MBC), planktonic cells. The format is cell-based. The conditions noted are these: Staphylococcus aureus, ATCC25923; minimal bactericidal concentration, planktonic cells, 24 h challenge, LB medium; read-out: MBC S. aureus. The method, then: as §1
For `O=C(c1cc([N+](=O)[O-])c[nH]1)c1cc(Cl)cc(Cl)c1O` [PM 5a, (3,5-Dichloro-2-hydroxyphenyl)(4-nitro-1H-pyrrol-2-yl)methanone], the MBC came out at 60 µM (≈ 18.1 µg/mL).

The same assay, now with this note: minimal bactericidal concentration, planktonic cells, 24 h challenge, LB medium; read-out: MBC S. aureus.
Consider `O=C(c1cc([N+](=O)[O-])c[nH]1)c1cc(Cl)cc(Cl)c1O` [PM 5a, (3,5-Dichloro-2-hydroxyphenyl)(4-nitro-1H-pyrrol-2-yl)methanone], for which the MBC stood at 60 µM (≈ 18.1 µg/mL).

The assay is the same for the next values; noted with them: ratio of IC50 of normal hTERT-RPE-1 to MBC of S. aureus; second value of the cell.
`O=C(c1cc([N+](=O)[O-])c[nH]1)c1cc(Cl)cc(Cl)c1O` [PM 5a, (3,5-Dichloro-2-hydroxyphenyl)(4-nitro-1H-pyrrol-2-yl)methanone]: the “B-SI (Bacterial Selectivity Index), S. aureus” value stood at 1.1.

The test system of a further assay is HCT116 colon cancer cell line. Nature of the assay: MTT viability assay. The format is cell-based. Conditions: Homo sapiens, HCT-116, 48 h, MTT, 48 h of treatment. The method, then: (§2) The HCT116 colon cancer cell line (ATCC® CCL-247™), the MCF 7 breast cancer cell line (ATCC® HTB-22™) and the hTERT RPE-1 -immortalized retinal pigment epithelial cell line (ATCC® CRL-4000™) used in this study were cultured in DMEM medium (Gibco, Paisley, UK), supplemented with 1% glutamine, 10% heat-inactivated fetal bovine serum and 100U/mL penicillin and 100 μg/mL streptomycin, as already described, and maintained at 37 °C and 5% CO2.
(§3) Cells were plated at 5 × 10^3 cells/well in 96-well plates and incubated for 24 h prior to treatment for further 48 h of different concentrations of PMs. After incubation, a sample of 20 μL of Thiazolyl Blue Tetrazolium Bromide (5 mg mL^−1) in PBS was added to each well and cultured for 2h at 37 °C in CO2 incubator. After removing the medium containing MTT and three washes with PBS, 100 μL of warm DMSO was added to each well to dissolve formazan. Samples were shaken for 10 min, at room temperature in the dark, and the absorbance was recorded at 570 nm using a microplate reader (Spark® 20M Tecan Trading AG, Switzerland). Percentage of cell viability with respect to untreated control cells (vehicle control) was calculated after subtraction of the blank. The IC50 values, that is the concentration necessary to inhibit the 50% of cell growth, was calculated using a dose-response model, obtained from sigmoidal fitting of response curves of percent inhibition versus logarithmic concentration of PMs, using Graph Pad Prism software. Each result represents the mean value of three different experiments performed in triplicate.
Take `O=C(c1cc([N+](=O)[O-])c[nH]1)c1cc(Cl)cc(Cl)c1O` [PM 5a, (3,5-Dichloro-2-hydroxyphenyl)(4-nitro-1H-pyrrol-2-yl)methanone]: the IC50 is 1900 ± 420 nM.

The same assay, now with this note: ratio of IC50 of normal hTERT-RPE-1 to that of HCT116; first value of the cell.
Take `O=C(c1cc([N+](=O)[O-])c[nH]1)c1cc(Cl)cc(Cl)c1O` [PM 5a, (3,5-Dichloro-2-hydroxyphenyl)(4-nitro-1H-pyrrol-2-yl)methanone]: the “C-SI (Cancer Selectivity Index), HCT116” value was 34.6.

The subject of another assay is MCF 7 breast cancer cell line. Put plainly: MTT viability assay. The format is cell-based. The conditions noted are these: Homo sapiens, MCF7, 48 h, MTT, 48 h of treatment. As for the experimental part: as §2, §3
On the technique in general: Formazan colour is commonly taken as a measure of viable cells.
Turning to `O=C(c1cc([N+](=O)[O-])c[nH]1)c1cc(Cl)cc(Cl)c1O` [PM 5a, (3,5-Dichloro-2-hydroxyphenyl)(4-nitro-1H-pyrrol-2-yl)methanone], it took 2250 ± 350 nM to reach half-maximal inhibition (IC50).

The assay is the same for the next values; noted with them: MTT, 48 h of treatment.
Take `O=C(c1cc([N+](=O)[O-])c[nH]1)c1cc(Cl)cc(Cl)c1O` [PM 5a, (3,5-Dichloro-2-hydroxyphenyl)(4-nitro-1H-pyrrol-2-yl)methanone]: the IC50 stood at 2200 ± 300 nM.

The assay is the same for the next values; noted with them: ratio of IC50 of normal hTERT-RPE-1 to that of MCF 7; second value of the cell.
Take `O=C(c1cc([N+](=O)[O-])c[nH]1)c1cc(Cl)cc(Cl)c1O` [PM 5a, (3,5-Dichloro-2-hydroxyphenyl)(4-nitro-1H-pyrrol-2-yl)methanone]: the “C-SI (Cancer Selectivity Index), MCF 7” value is 29.2.

The test system of another assay is hTERT RPE-1 immortalized retinal pigment epithelial cell line. Nature of the assay: MTT viability assay (cytotoxicity on normal cells). The format is cell-based. Conditions: hTERT-RPE1; MTT, 48 h of treatment, normal epithelial cells; read-out: IC50 hTERT-RPE-1. As for the experimental part:
as §2, §3
For the compound `O=C(c1cc([N+](=O)[O-])c[nH]1)c1cc(Cl)cc(Cl)c1O` [PM 5a, (3,5-Dichloro-2-hydroxyphenyl)(4-nitro-1H-pyrrol-2-yl)methanone], the IC50 turned out to be 65800 ± 10500 nM.

For the next assay, the system named is HCT116 and MCF 7 cancer cell lines. Nature of the assay: MTT viability assay, statements over both cancer cell lines. The format is cell-based. Conditions: MTT, 48 h challenge; group statement; read-out: IC50, regardless of the cancer cell line (HCT116, MCF 7). The method, then:
as §2, §3
For the compound `O=C(c1cc([N+](=O)[O-])c[nH]1)c1cc(Cl)cc(Cl)c1O` [PM 5a, (3,5-Dichloro-2-hydroxyphenyl)(4-nitro-1H-pyrrol-2-yl)methanone], the IC50 was in the range of 800 to 2250 nM.

The assay is the same for the next values; noted with them: mean of HCT116 and MCF 7 C-SI.
Turning to `O=C(c1cc([N+](=O)[O-])c[nH]1)c1cc(Cl)cc(Cl)c1O` [PM 5a, (3,5-Dichloro-2-hydroxyphenyl)(4-nitro-1H-pyrrol-2-yl)methanone], the “C-SI, mean value among the two cancer cell lines” value is 32.

For a further assay, the system named is HCT116 cells. Nature of the assay: Morphological assessment, phase contrast inverted microscope. The format is cell-based. The conditions noted are these: 0.1 µM (sub-inhibitory), 24 h. The method, then:
HCT116 cells were seeded in 24 well culture plates with a cell density of 1 × 10^5 cells/well. After 24 h cells were incubated for 24 h with different concentration of the selected PMs, and observed under a phase contrast inverted microscope (Carl Zeiss) at 200× magnification, for morphological changes assessment.
As for `O=C(c1cc([N+](=O)[O-])c[nH]1)c1cc(Cl)cc(Cl)c1O` [PM 5a, (3,5-Dichloro-2-hydroxyphenyl)(4-nitro-1H-pyrrol-2-yl)methanone], the “morphology of treated HCT116 cells” value was “more fibroblastic and less clumped morphology”.

Another assay deals with HCT116 cells. Nature of the assay: Acridine orange/ethidium bromide (AO/EB) staining. The format is cell-based. Conditions: treated at IC50 for 24 and 48 h. From the text: Cells were immediately observed under a fluorescent microscopy (Carl Zeiss) at 630 × magnification.
Consider `O=C(c1cc([N+](=O)[O-])c[nH]1)c1cc(Cl)cc(Cl)c1O` [PM 5a, (3,5-Dichloro-2-hydroxyphenyl)(4-nitro-1H-pyrrol-2-yl)methanone], for which the “AO/EB fluorescence of treated HCT116 cells (type of cell death)” value is “orange fluorescence”.
